These results are taken from patent US20150246067A1, “ANTIVIRAL TREATMENT OF LYMPHOMA AND CANCER” (THE REGENTS OF THE UNIVERSITY OF MICHIGAN, priority 2009, published 2015).

The test system of this assay is HERV K (HML2). The assay is described as follows: Reverse transcriptase activity in supernatants of drug-treated NCCIT cells (Reverse Transcription Assay Kit). Type of assay: cell-based, human. The settings on record: 7 days, increasing doses of drug, supernatant, FIGS. 4A-I. On the procedure:
HIV antivirals were assayed to determine which antiviral agents have an antiviral effect against HERV K (HML2). The NCCIT cell line derived from a teratocarcinoma produces many HERV K (HML2) viral particles. NCCIT cells were maintained at 40% confluence in 6-well plates in RPMI medium and incubated for 7 days in the presence of increasing doses of nucleoside or non-nucleoside reverse transcriptase inhibitors or HIV protease inhibitors. Drugs, provided as lyophilized powders by the AIDS Research and Reference Reagent Program, were resuspended to a final concentration of 10 mg/mL (except for PFA: 60 mg/mL) in different solvents as recommended (SEE table 1). Cells were incubated for 7 days at increasing doses of drugs or the vehicle of solution as controls. Supernatants were collected and cell debris was removed by centrifugation at 2300 rpm for 20 min. Supernatant was assessed for Reverse Transcriptase Activity using the Reverse Transcription Assay Kit (Invitrogen) as described by the manufacturer. In addition, supernatants were treated with 20 units of DNAse (Roche) for 1 hour at 37° C. and viral RNA was extracted using the Viral RNA mini kit (Qiagen) as described by the manufacturer. The HERV-K type 2 viral load was measured by quantitative Real Time RT-PCR using primers that expand the type-2 env gene region, which is absent in type-1 viruses, Kenv type2F: 5′-[…]-3′ (SEQ ID NO. 1), and Kenv type2R: 5′-[…]-3′ (SEQ ID NO. 2). Standard curves were generated using serial dilutions of in vitro RNA transcripts as external calibrators. In a similar way, quantities of HERV—K type 2 proviruses were measured by Real Time PCR using 500 ng of isolated DNA.

Molecules are shown by their SMILES.

Consider `Cc1cn([C@H]2C[C@H](N=[N+]=[N-])[C@@H](CO)O2)c(=O)[nH]c1=O` [AZT, Zidovudine], for which the “HERV K (HML2) RT activity” value was “reduction”.

With `Nc1ccn([C@H]2CC[C@@H](CO)O2)c(=O)n1` [ddC, zalcitabine], the “HERV K (HML2) RT activity” value was “reduction”.

Turning to `Nc1nc(=O)n([C@@H]2CS[C@H](CO)O2)cc1F` [FTC, Emtricitabine], the “HERV K (HML2) RT activity” value is on record as “reduction”. Regarding `O=c1[nH]cnc2c1ncn2[C@H]1CC[C@@H](CO)O1` [ddI, Dideoxyinosine], the “HERV K (HML2) RT activity” value was “reduction”. Consider `Cc1cn([C@H]2C=C[C@@H](CO)O2)c(=O)[nH]c1=O` [d4T, Stavudine], for which the “HERV K (HML2) RT activity” value is “reduction”. For the compound `CC(C)OC(=O)OCOP(=O)(CO[C@H](C)Cn1cnc2c(N)ncnc21)OCOC(=O)OC(C)C` [tenofovir disoproxil, Tenofovir disoproxyl fumarato], the “HERV K (HML2) RT activity” value is given as “reduction”.

With `O=c1nc(NO)ccn1[C@@H]1O[C@H](CO)[C@@H](O)[C@H]1O` [β-D hydroxycytidine, β-d hydroxy cytidine], the “HERV K (HML2) RT activity” value is given as “reduction”. For the compound `Nc1nc(NC2CC2)c2ncn([C@H]3C=C[C@@H](CO)C3)c2n1` [Abacavir], the “HERV K (HML2) RT activity” value is “reduction”.
